Test [1] concerns HepG2. Nature of the test: Cytotoxicity against human HepG2 cells assessed as reduction in cell viability after 48 to 72 hrs. Type of test: functional, cell-based.
For test [2], the system named is HepG2. Nature of the test: Induction of apoptosis in human 3D HepG2 spheroids measured after 24 hrs by propidium iodide staining based immunofluorescence microscopy analysis. The test is classed as functional, cell-based.
The next test relates to Hep 3B2. The experiment in a line: Cytotoxicity against human Hep3B cells assessed as growth inhibition. Type of test: functional, cell-based.
For test [3], the target named is Exportin-1 (Homo sapiens) (UniProt O14980). The experiment in a line: Inhibition of CRM1 in human HuH7 cells assessed as accumulation of RIOK2 in nucleus at 1 and 10 uM measured after 24 hrs by DAPI staining based confocal microscopy analysis. The test is classed as cell-based.
Exportin-1 (Homo sapiens), sequence (O14980 whole entry): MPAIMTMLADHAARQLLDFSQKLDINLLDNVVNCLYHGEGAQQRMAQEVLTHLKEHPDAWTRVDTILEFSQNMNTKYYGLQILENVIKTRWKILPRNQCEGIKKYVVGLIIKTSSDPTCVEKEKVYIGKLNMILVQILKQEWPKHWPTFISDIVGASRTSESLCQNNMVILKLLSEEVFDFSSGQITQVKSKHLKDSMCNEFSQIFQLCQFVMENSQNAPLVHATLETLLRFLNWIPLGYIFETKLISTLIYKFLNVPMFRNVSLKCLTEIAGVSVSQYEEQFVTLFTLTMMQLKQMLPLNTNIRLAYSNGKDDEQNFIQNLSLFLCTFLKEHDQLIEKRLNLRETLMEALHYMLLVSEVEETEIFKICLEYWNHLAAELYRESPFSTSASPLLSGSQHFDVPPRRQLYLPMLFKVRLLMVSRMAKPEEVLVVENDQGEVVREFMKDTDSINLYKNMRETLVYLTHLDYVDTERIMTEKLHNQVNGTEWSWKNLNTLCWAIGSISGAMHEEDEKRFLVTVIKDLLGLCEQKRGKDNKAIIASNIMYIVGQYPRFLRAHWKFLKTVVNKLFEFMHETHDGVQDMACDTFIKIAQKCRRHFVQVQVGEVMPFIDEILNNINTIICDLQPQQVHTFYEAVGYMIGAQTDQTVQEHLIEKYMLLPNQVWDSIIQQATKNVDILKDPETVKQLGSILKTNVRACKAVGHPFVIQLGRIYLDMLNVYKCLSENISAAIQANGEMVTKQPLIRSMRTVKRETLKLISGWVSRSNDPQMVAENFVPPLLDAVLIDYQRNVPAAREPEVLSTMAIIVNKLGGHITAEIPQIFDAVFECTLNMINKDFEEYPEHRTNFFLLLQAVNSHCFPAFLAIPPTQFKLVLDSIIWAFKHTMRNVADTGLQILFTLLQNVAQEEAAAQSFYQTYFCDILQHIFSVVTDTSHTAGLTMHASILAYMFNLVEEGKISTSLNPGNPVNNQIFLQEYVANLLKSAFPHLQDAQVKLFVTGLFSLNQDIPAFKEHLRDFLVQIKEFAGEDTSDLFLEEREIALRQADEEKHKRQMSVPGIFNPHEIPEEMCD
Test [4] relates to Huh-7. Nature of the test: Cytotoxicity against human HuH7 cells assessed as reduction in cell viability measured after 24 hrs by MTT assay. Type of test: functional, cell-based. To be noted: Huh-7, 24 h. In general terms: Tetrazolium assays rely on reduction of a dye to a coloured formazan, in cell work by metabolically active cells.
Test [5] has as its system Huh-7. The experiment in a line: Cytotoxicity against human HuH7 cells assessed as reduction in cell viability measured after 48 hrs by MTT assay. The test is classed as functional, cell-based. Particulars: Huh-7, 48 h.
Test [6] has as its target T1, NAD-dependent protein deacetylase sirtuin-1 (Homo sapiens) (UniProt Q96EB6).
T1 sequence (whole entry): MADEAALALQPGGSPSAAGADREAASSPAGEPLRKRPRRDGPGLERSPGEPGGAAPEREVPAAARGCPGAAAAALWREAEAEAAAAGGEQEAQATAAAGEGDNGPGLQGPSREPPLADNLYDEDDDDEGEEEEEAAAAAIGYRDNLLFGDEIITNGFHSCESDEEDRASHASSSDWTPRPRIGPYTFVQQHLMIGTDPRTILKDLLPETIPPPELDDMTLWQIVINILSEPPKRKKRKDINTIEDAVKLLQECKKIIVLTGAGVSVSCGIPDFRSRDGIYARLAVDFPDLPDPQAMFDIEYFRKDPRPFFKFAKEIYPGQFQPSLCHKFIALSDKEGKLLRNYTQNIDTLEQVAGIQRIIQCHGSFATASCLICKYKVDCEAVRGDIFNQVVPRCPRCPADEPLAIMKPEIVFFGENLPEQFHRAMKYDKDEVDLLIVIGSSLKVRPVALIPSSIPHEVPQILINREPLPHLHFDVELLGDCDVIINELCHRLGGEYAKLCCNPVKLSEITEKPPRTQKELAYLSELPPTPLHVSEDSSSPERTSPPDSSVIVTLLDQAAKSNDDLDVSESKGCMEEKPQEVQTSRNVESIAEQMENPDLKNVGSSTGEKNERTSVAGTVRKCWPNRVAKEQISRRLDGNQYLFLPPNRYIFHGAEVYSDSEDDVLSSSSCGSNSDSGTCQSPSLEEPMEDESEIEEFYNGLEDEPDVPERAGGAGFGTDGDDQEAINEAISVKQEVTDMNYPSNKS
Nature of the test: Inhibition of human recombinant SIRT1 at 10 uM using FLUOR DE LYS SIRT1, deacetylase as substrate preincubated for 2 mins followed by substrate addition measured after 1 hr in presence of NAD+ by fluorescence assay relative to control.

For test [7], the system named is HepG2. The experiment in a line: Cytotoxicity against human HepG2 cells assessed as reduction in cell viability measured after 24 hrs by MTT assay. The test is classed as functional, cell-based. Particulars: HepG2, 24 h.
In test [8] the test system is HepG2. The experiment in a line: Cytotoxicity against human HepG2 cells assessed as reduction in cell viability measured after 72 hrs by MTT assay. To be noted: HepG2, 72 h. The test is classed as functional, cell-based.
Test [9] has as its system HepG2. Nature of the test: Induction of apoptosis in human 3D HepG2 spheroids at 10 uM measured after 24 hrs by propidium iodide staining based immunofluorescence microscopy analysis. Type of test: functional, cell-based.
Test [10] addresses Exportin-1 (Homo sapiens) (UniProt O14980). The experiment in a line: Inhibition of CRM1 in human HuH7 cells assessed as accumulation of RIOK2 in nucleus at 0.1 to 10 uM measured after 6 hrs by DAPI staining based confocal microscopy analysis. The test is classed as cell-based.
The test system of test [11] is Huh-7. Nature of the test: Cytotoxicity against human HuH7 cells assessed as reduction in cell viability measured after 72 hrs by MTT assay. The test is classed as functional, cell-based. To be noted: Huh-7, 72 h.
The subject of test [12] is HepG2. The experiment in a line: Cytotoxicity against human HepG2 cells assessed as reduction in cell viability measured after 48 hrs by MTT assay. The test is classed as functional, cell-based. To be noted: HepG2, 48 h.
For test [13], the target named is T1, NAD-dependent protein deacetylase sirtuin-1 (Homo sapiens). Nature of the test: Inhibition of human recombinant SIRT1 at 100 uM using FLUOR DE LYS SIRT1, deacetylase as substrate preincubated for 2 mins followed by substrate addition measured after 1 hr in presence of NAD+ by fluorescence assay relative to control.

This is an account of results in ChEMBL document CHEMBL4359853, “Antiproliferative activity of (R)-4'-methylklavuzon on hepatocellular carcinoma cells and EpCAM+/CD133+ cancer stem cells via SIRT1 and Exportin-1 (CRM1) inhibition” (Eur J Med Chem, 2019).

Calls of active or inactive are those of the source. The calls are words filed in the database; no cut-off is given here.

A word on the IC50: it is the concentration at which inhibition is half-maximal. For `O=C1C=CC[C@H](/C=C/c2ccccc2)O1` [GONIOTHALAMIN], the figures for the IC50 in the test with HepG2 [1] and with Hep 3B2 were 625 to 2500 nM and 5400 nM, respectively. In addition, in the test with HepG2 [2], the outcome was Active.

By inhibition is commonly meant the relative decrease from the control value, in per cent. Turning to `O=C1C=CCC(c2cc3c(c4ccccc24)CCCC3)O1` (racemic), the inhibition entry in test [3] and in test [10] was “Active” in each case. The IC50 in the test on Huh-7 [4] is 5000 nM; with Huh-7 [5] it was 2500 nM; in the test on HepG2 [7], 5000 nM; with HepG2 [8], 100 nM; with Huh-7 [11], 1250 nM; in the test with HepG2 [12], 625 nM. The inhibition in test [6] turned out to be 17%; in test [13], 65%. In addition, in the test with HepG2 [9], the outcome was Active.
